# According to patent US20220225597A1, “MOUSE MODEL FOR ASSESSING TOXICITIES ASSOCIATED WITH IMMUNOTHERAPIES” (Juno Therapeutics, Inc., priority 2017, published 2022):
# Columns and labels:
# BALB/c mice [1] = format: in vivo, mouse
# Method: Various parameters relating to toxicity were assessed in BALB/c mice produced to develop B cell aplasia following administration of an immunotherapy involving anti-CD19 CAR T cells substantially as described in Example 2.
# At 24, 48, and 72 hours after infusion with cell compositions, the three healthiest mice from each group were anesthetized, transcardially perfused with phosphate buffered saline (PBS) to flush brain blood vessels, and sacrificed. Blood and tissue samples (spleen, kidney, liver and brain) were collected for analysis of immune cell populations, gene expression, and blood chemistry. The blood and tissue samples were either processed for flow cytometry or were snap-frozen for RNA sequencing (RNA-Seq) analysis. For flow cytometry, tissue samples were digested and cell suspensions were layered over a density gradient to enrich immune cell populations.
# BALB/c mice [2] = experiment: Survival in mouse model of toxicity (CPA, then muCAR-T or mock cells); format: in vivo; details: 250 mg/kg CPA alone i.p.; tumor-free BALB/c mice
# Method: (§1) A single dose of either 100 mg/kg or 250 mg/kg cyclophosphamide (CPA) was injected into naïve BALB/c mice (tumor-free) by intraperitoneal (i.p.) injection. Twenty-four hours later, about 5×10^6 mouse CAR-expressing T cells or mock (control) cells, generated as described in Example 1, were transferred into mice by intravenous injection into the lateral tail vein. As a control, mice were injected with CPA alone or were left untreated. Table E1 sets forth the treatment groups.
# BALB/c mice [3] = experiment: Serum chemistry profiles; details: various time points following cell treatment
# Method: The serum was stored at −20° C. prior to analysis for complete serum chemistry panels, including for levels of serum glucose, albumin, albumin to globulin (A/G) ratio, globulin, total protein, calcium, phosphorus, ALT, AST, and BUN enzymes.
# BALB/c mice [4] = format: in vivo, mouse; remark: listed apart in the source
# Method: as §1
# Blood samples were collected from treated mice at days 3, 10, 17, 31 and, in some mice at day 43, following cell infusion. The pharmacokinetics (PK) in the blood of administered cells was assessed by detection of the surrogate marker Thy 1.1. The number of circulating B cells, T cells and CD11b+ cells in the blood at the time points following treatment also was assessed.
# A20 cells = experiment: Tumor burden by histology; format: in vivo, mouse; details: mice having received A20 cells i.v.
# Method: To examine the effects of tumor burden on the toxicity following B cell aplasia in mice, BALB/c mice were injected with CD19-expressing A20 cells prior to treatment with CPA and mouse anti-CD19 CAR−T cells. A20 cells are a cell line of B lymphocytes derived from a spontaneous reticulum cell neoplasm in a BALB/cAnN mouse. As the cell line was originally derived from cells of an individual of a BALB/c mouse substrain, the cells are syngenic to the BALB/c mice and can be administered into an immunocompetent BALB/c mouse without triggering an immune response.
# BALB/c mice were injected intravenously with A20 cells. […] Table E3 sets forth the treatment groups.
# Tumor burden also was assessed by histology in treated mice.
structure (smiles),measurement,setting,value
"O=P1(N(CCCl)CCCl)NCCCO1 (centres unmarked) [CPA, cyclophosphamide]","circulating CD45+ live cells, CD11b+ cells, endogenous T cells and endogenous B cells in blood","BALB/c mice [1]; 250 mg/kg CPA pre-conditioning, continued to drop at least for 72 hours",depletion
same,"immune cells in brain tissue, including endogenous T cells and endogenous B cells",BALB/c mice [1]; CPA pre-conditioning,depleted
same,"immune cells (endogenous T cells, B cells, CD45+ cells, CD11b+ cells) in spleen, kidney and liver",BALB/c mice [1]; treatment with CPA,depletion
same,Survival,BALB/c mice [2],100%
same,serum Albumin to Globulin ratio (A/G ratio),BALB/c mice [3],significantly reduced
same,levels of circulating B cells,BALB/c mice [4]; 250 mg/kg CPA than 100 mg/kg CPA,reduced levels of circulating B cells to a greater degree
same,"circulating B cells, T cells, and CD11b+ cells","BALB/c mice [4]; 100 or 250 mg/kg CPA i.p., blood",depleted
same,A20 tumor masses in liver and spleen tissues,A20 cells,observed in some
